These results are taken from patent publication US20120027720A1, “PEPTIDE CONJUGATES” (priority 2008, published 2012).

What all share (format): cell-based
In one assay the test system is IEC6 cells. The assay is described as follows: Real-Time Cell Electronic Sensing (RT-CES, ACEA) assay of cell morphology change. Also on record: key: + indicates an enhancement of the permeability of the tight junctions were observed; − indicates no enhancement of permeability was observed. As to conditions: peptide at 5 mg/mL. From the text:
Agonists of tight junctions can be identified by their ability to induce changes in morphology of cells in a monolayer of cells that comprise tight junctions. Such changes in the morphology of IEC6 cells may be measured using a Real-Time Cell Electronic Sensing protocol as described below.
Tight junction agonists can be identified using the following method an used in peptide conjugates of the invention:
Materials: cells: IEC6 passage 30-50, medium: DMEM 10% no calcium no magnesium, foetal bovine serum 0.1 unit per ml bovine insulin, buffers: phosphate buffered saline (PBS) no calcium no magnesium, trypsin: 0.25% porcine trypsin in HBSS no calcium no magnesium, flasks: 100×20 mm Tissue culture dish Falcon, plates: 16× E-Plate, machine: RT-CES™ 16× system (ACEA Biosciences, Inc., San Diego, Calif.)
Wash a 75 cm^2 flask of confluent IEC6 cells twice with 25 ml of PBS.
Add 2.5 ml of trypsin to the flask and place back in the incubator at 37° C.
Wash cells from the surface of the flask with 10 ml of serum containing media to quench the trypsin.
Pellet the cells by centrifugation at 1500 rpm for 5 minutes aspirate the media.
Resuspend the cell pellet in 10 ml of serum free media and centrifuge at 1500 rpm for 5 minutes aspirate the media and repeat for a total of 5 washes.
Take 100 μl of cells and mix with 100 μl of trypan blue.
Count the cells four times and use the average cell concentration.
Dilute the cells to 1×10^6 per ml in serum free media.
Add 100 μl of serum free media to each well of the ACEA plates to be used.
Insert the ACEA plate and press scan.
Run step 1 of the program to measure background.
Add 50 μl of cells to each well of the ACEA plate tap each slide of the plate 10 times and place the cells on the bench for 15 minutes to allow the cells to settle.
Insert the ACEA plate and run the scan step to check connections and run step 2-1 and 2-2 overnight.
Step 2-1 sample every 2 minutes 30 times.
Step 2-2 sample every 15 minutes 100 times.
The cell indices should be between 6-10 after the overnight run and should have reached a plateau.
Remove 100 μl of media carefully from each well.
Make up the compounds to be tested so that 50 μl contains 2× the desired final concentration.
Add 50 μl of compounds to the designated wells.
Scan the plate to check connections.
Step 3-1 sample every 2 minutes 30 times.
Step 3-2 sample every 15 minutes 100 times.

Assay [1] has as its system CaCo2 monolayers. The assay is described as follows: Trans Epithelial Electric Resistance (TEER) across cell monolayer. Details: key to Reduced TEER: + indicates an enhancement of the permeability of the tight junctions were observed; − indicates no enhancement of permeability was observed. As to conditions: Caco-2 monolayer. An outline of the steps:
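Caco-2 cells, passage 40-60, grown 21-28 days on Transwell filters, equilibrated 30 min at 37° C in MHBSS pH 7.4. Test compound with Lucifer Yellow applied apically (n=3), incubated at 37° C with 50 RPM shaking; TEER measured at baseline and at 30, 60, 120 and 180 min.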

Assay [2] concerns CaCo2 monolayers. Description: Epithelial flux of Lucifer Yellow through cell monolayer. Also on record: key to Enhanced LY permeability: + indicates an enhancement of the permeability of the tight junctions were observed; − indicates no enhancement of permeability was observed. The conditions noted are these: Lucifer Yellow flux, Caco-2 monolayer. An outline of the steps: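 Caco-2 cells (passage 40-60) grown 21-28 days on Transwell filters, equilibrated 30 min at 37 °C in HBSS-HEPES pH 7.4; Lucifer Yellow with test compound applied apically, n=3 filters. Basolateral samples at 60, 120, 180 min read by fluorescence at 485/535 nm against standard curve; TEER also measured.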

Where no end group is shown, it is not given here. [ ]: non-standard residue; d: D form.

Take “7 (FCIGRA; not fully specified; printed as Phe-Cys-Ile-Gly-Arg-Ala) [compound 7]”: in the assay with IEC6 cells, the “ACEA 5 mg/mL” value is given as “+”. In addition, the “Reduced TEER” value with CaCo2 monolayers [1] is “+”. Also, in the assay on CaCo2 monolayers [2], the “Enhanced LY permeability” value is “+”.

Regarding “8 (CIGRL; not fully specified; printed as Cys-Ile-Gly-Arg-Leu) [compound 8]”, the “ACEA 5 mg/mL” value in the assay on IEC6 cells is reported as “−”. Besides, the “Reduced TEER” value in the assay with CaCo2 monolayers [1] is “−”. The “Enhanced LY permeability” value in the assay on CaCo2 monolayers [2] is given as “−”.

With “10 (FCIGR; also: peptide conjugate) [compound 10]”, the “ACEA 5 mg/mL” value in the assay on IEC6 cells is given as “+”. The “Reduced TEER” value with CaCo2 monolayers [1] was “+”. In addition, the “Enhanced LY permeability” value in the assay on CaCo2 monolayers [2] is listed as “+”.

Consider “13 (F[dC]IGRL; also: peptide conjugate) [compound 13]”, for which the “ACEA 5 mg/mL” value with IEC6 cells is listed as “+”. Besides, in the assay on CaCo2 monolayers [1], the “Reduced TEER” value is listed as “+”. Further, the “Enhanced LY permeability” value with CaCo2 monolayers [2] was “+”.

“14 (FC[dI]GRL; also: peptide conjugate) [compound 14]”: the “ACEA 5 mg/mL” value in the assay on IEC6 cells is “−”. Moreover, the “Reduced TEER” value in the assay on CaCo2 monolayers [1] was “+”. For the same substance, the “Enhanced LY permeability” value in the assay on CaCo2 monolayers [2] is “+”.

Take “15 (FCIG[dR]L; also: peptide conjugate) [compound 15]”: in the assay with IEC6 cells, the “ACEA 5 mg/mL” value was “+”. In the assay with CaCo2 monolayers [1], the “Reduced TEER” value is “−”. Moreover, the “Enhanced LY permeability” value in the assay with CaCo2 monolayers [2] is “−”.

For the substance “16 (FCIGR[dL]; also: peptide conjugate) [compound 16]”, the “ACEA 5 mg/mL” value in the assay on IEC6 cells is “−”. In addition, the “Reduced TEER” value in the assay with CaCo2 monolayers [1] is listed as “−”. The “Enhanced LY permeability” value with CaCo2 monolayers [2] is listed as “−”.

Regarding “17 ([dL][dR]G[dI][dC][dF]; also: peptide conjugate) [compound 17]”, in the assay on IEC6 cells, the “ACEA 5 mg/mL” value is reported as “−”. Further, the “Reduced TEER” value in the assay with CaCo2 monolayers [1] is “+”. In addition, in the assay on CaCo2 monolayers [2], the “Enhanced LY permeability” value was “+”.

Regarding “18 ([dL][dR]G[dI][dC]F; not fully specified; printed as D-Leu-D-Arg-Gly-D-Ile-D-Cys-Phe) [compound 18]”, in the assay on IEC6 cells, the “ACEA 5 mg/mL” value is recorded as “+”. The “Reduced TEER” value in the assay with CaCo2 monolayers [1] is given as “+”. The “Enhanced LY permeability” value in the assay with CaCo2 monolayers [2] is “+”.

As for “19 ([dL][dR]G[dI]C[dF]; not fully specified; printed as D-Leu-D-Arg-Gly-D-Ile-Cys-D-Phe) [compound 19]”, in the assay with IEC6 cells, the “ACEA 5 mg/mL” value was “+”. Besides, the “Reduced TEER” value in the assay on CaCo2 monolayers [1] is “+”. The “Enhanced LY permeability” value in the assay with CaCo2 monolayers [2] is “+”.

For the substance “22 (L[dR]G[dI][dC][dF]; not fully specified; printed as Leu-D-Arg-Gly-D-Ile-D-Cys-D-Phe) [compound 22]”, the “ACEA 5 mg/mL” value with IEC6 cells is “−”. For the same substance, in the assay on CaCo2 monolayers [1], the “Reduced TEER” value was “+”. Besides, the “Enhanced LY permeability” value with CaCo2 monolayers [2] was “+”.

On to “23 (LRGICF; not fully specified; printed as Leu-Arg-Gly-Ile-Cys-Phe) [compound 23]”, for which the “ACEA 5 mg/mL” value in the assay with IEC6 cells is “−”. In addition, in the assay with CaCo2 monolayers [1], the “Reduced TEER” value is recorded as “+”. Besides, the “Enhanced LY permeability” value with CaCo2 monolayers [2] is listed as “+”.

Regarding “24 ([dL]RGICF; not fully specified; printed as D-Leu-Arg-Gly-Ile-Cys-Phe) [compound 24]”, the “ACEA 5 mg/mL” value in the assay on IEC6 cells was “+”. Further, in the assay on CaCo2 monolayers [1], the “Reduced TEER” value is on record as “−”. The “Enhanced LY permeability” value in the assay on CaCo2 monolayers [2] was “−”.

Take “25 (L[dR]GICF; not fully specified; printed as Leu-D-Arg-Gly-Ile-Cys-Phe) [compound 25]”: the “ACEA 5 mg/mL” value in the assay with IEC6 cells was “+”. In the assay on CaCo2 monolayers [1], the “Reduced TEER” value is listed as “−”. In addition, the “Enhanced LY permeability” value with CaCo2 monolayers [2] is “−”.

As for “29 ([dF][dC][dI]G[dR][dL]; not fully specified; printed as D-Phe-D-Cys-D-Ile-Gly-D-Arg-D-Leu) [compound 29]”, the “ACEA 5 mg/mL” value in the assay with IEC6 cells is “−”. In addition, the “Reduced TEER” value in the assay on CaCo2 monolayers [1] is given as “+”. Also, the “Enhanced LY permeability” value with CaCo2 monolayers [2] is “+”.

In the case of “32 ([dF][dC]IG[dR][dL]; not fully specified; printed as D-Phe-D-Cys-Ile-Gly-D-Arg-D-Leu) [compound 32]”, the “ACEA 5 mg/mL” value in the assay on IEC6 cells is on record as “−”. Moreover, in the assay with CaCo2 monolayers [1], the “Reduced TEER” value was “+”. The “Enhanced LY permeability” value in the assay with CaCo2 monolayers [2] is given as “+”.

As for “33 ([dF]C[dI]G[dR][dL]; not fully specified; printed as D-Phe-Cys-D-Ile-Gly-D-Arg-D-Leu) [compound 33]”, the “ACEA 5 mg/mL” value with IEC6 cells is reported as “+”. In addition, in the assay on CaCo2 monolayers [1], the “Reduced TEER” value is reported as “−”. The “Enhanced LY permeability” value with CaCo2 monolayers [2] is “−”.
